Experimental data: ChEMBL document CHEMBL1201862, “PubChem BioAssay data set” (2004)
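Protocol summary: plate cells (96-well), add compound at 5 concentrations, incubate 48 h, interpolate endpoints linearly. Here, GI50 denotes the concentration required for 50% inhibition of growth.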 Calls of active or inactive are those of the source. Cut-off read from the data, not from the text of the source: active = GI50 up to about 1.1 µM and inactive = higher.

Columns and labels:
Assay in all cases: NCI-60 cell line screen, 48 h
HT-29 = system: HT-29
NCI-H23 = system: NCI-H23
HCT-15 = system: HCT-15
SK-MEL-2 = system: SK-MEL-2
NCI-H226 = system: NCI-H226
RXF 393 = system: RXF 393
M14 = system: M14
PC-3 = system: PC-3
UO-31 = system: UO-31
OVCAR-3 = system: OVCAR-3
OVCAR-8 = system: OVCAR-8
T47D = system: T47D
UACC-62 = system: UACC-62
HL-60 = system: HL-60
SK-MEL-28 = system: SK-MEL-28
SF-295 = system: SF-295
MDA-MB-231 = system: MDA-MB-231
786-0 = system: 786-0
DU-145 = system: DU-145
HCC 2998 = system: HCC 2998

Row | SMILES | GI50 (HT-29) | GI50 (NCI-H23) | GI50 (HCT-15) [µM] | GI50 (SK-MEL-2) | GI50 (NCI-H226) | GI50 (RXF 393) | GI50 (M14) | GI50 (PC-3) | GI50 (UO-31) | GI50 (OVCAR-3) | GI50 (OVCAR-8) | GI50 (T47D) | GI50 (UACC-62) | GI50 (HL-60) | GI50 (SK-MEL-28) | GI50 (SF-295) | GI50 (MDA-MB-231) | GI50 (786-0) | GI50 (DU-145) | GI50 (HCC 2998)
1 | CCOc1cc(-c2nc3ccccn3c2/N=C/c2cc(Br)ccc2O)ccc1O | 42.1 µM (inactive) | 39.8 µM (inactive) | 8.51 | 46.1 µM (inactive) | 93.3 µM (inactive) | 16 µM (inactive) | 36.1 µM (inactive) | 18.8 µM (inactive) | 27 µM (inactive) | 9.29 µM (inactive) | 21.2 µM (inactive) | 2.37 µM (inactive) | 23.9 µM (inactive) | 15 µM (inactive) | > 100 µM (inactive) | 58.2 µM (inactive) | 30.5 µM (inactive) | 25.1 µM (inactive) | 12.5 µM (inactive) | 
2 | Cc1ccc(C)c(NC(=O)/C(=N\N)C(c2cnc3ccc([N+](=O)[O-])cc3n2)[N+](=O)[O-])c1 (stereo not given) | 65.8 µM (inactive) | 70.8 µM (inactive) | > 100 | 71.6 µM (inactive) | > 100 µM (inactive) | > 100 µM (inactive) | > 100 µM (inactive) | 50.7 µM (inactive) | 23.6 µM (inactive) | 61.1 µM (inactive) | 37 µM (inactive) | 87.7 µM (inactive) | > 100 µM (inactive) | 52 µM (inactive) | > 100 µM (inactive) | > 100 µM (inactive) | 37.8 µM (inactive) | > 100 µM (inactive) |  | 69.8 µM (inactive)
3 | Nc1nc(O)c2c(n1)NCN(CCCN1CCOCC1)C2 | > 100 µM (inactive) | > 100 µM (inactive) | > 100 | > 100 µM (inactive) | > 100 µM (inactive) |  | > 100 µM (inactive) | > 100 µM (inactive) | > 100 µM (inactive) | 55.3 µM (inactive) | > 100 µM (inactive) | > 100 µM (inactive) | > 100 µM (inactive) |  | > 100 µM (inactive) | > 100 µM (inactive) | > 100 µM (inactive) | > 100 µM (inactive) | > 100 µM (inactive) | > 100 µM (inactive)
4 | O=C(O)COc1cc(-c2ccccc2)nc2ccc(F)cc12 | > 100 µM (inactive) | > 100 µM (inactive) | > 100 | > 100 µM (inactive) | > 100 µM (inactive) |  | > 100 µM (inactive) | > 100 µM (inactive) | 70 µM (inactive) | > 100 µM (inactive) | > 100 µM (inactive) | > 100 µM (inactive) | > 100 µM (inactive) | > 100 µM (inactive) | > 100 µM (inactive) | > 100 µM (inactive) | > 100 µM (inactive) | > 100 µM (inactive) | > 100 µM (inactive) | 98.6 µM (inactive)
5 | COc1cc2c(/C=C3/C(=O)Nc4ccc(O)cc43)c(Cl)[nH]c2cc1C | 0.149 µM (active) | 0.23 µM (active) | 0.107 | 0.883 µM (active) | 0.258 µM (active) | 0.176 µM (active) | 0.0897 µM (active) | 0.359 µM (active) | 0.728 µM (active) | 0.026 µM (active) | 0.281 µM (active) | 0.0462 µM (active) | 0.0499 µM (active) | 0.0343 µM (active) | 0.0149 µM (active) | 0.0984 µM (active) | 0.283 µM (active) | 0.173 µM (active) | 0.245 µM (active) | 
6 | CCOC(=O)C(CO)c1nc2c([nH]c1=O)c(=O)n(C)c(=O)n2C (stereo not given) | > 100 µM (inactive) | > 100 µM (inactive) | > 100 | > 100 µM (inactive) | > 100 µM (inactive) |  | > 100 µM (inactive) | > 100 µM (inactive) | > 100 µM (inactive) | > 100 µM (inactive) | > 100 µM (inactive) | 13.7 µM (inactive) | > 100 µM (inactive) | > 100 µM (inactive) | > 100 µM (inactive) | > 100 µM (inactive) | > 100 µM (inactive) | > 100 µM (inactive) | > 100 µM (inactive) | > 100 µM (inactive)
7 | COc1ccc(-c2cc(-c3cc(C)cc(Br)c3O)no2)cc1 | 31.6 µM (inactive) | 14.7 µM (inactive) | 24.1 | 22.2 µM (inactive) | 5.18 µM (inactive) |  | 25.6 µM (inactive) | 4.44 µM (inactive) | 12.5 µM (inactive) | 6.38 µM (inactive) | 4.31 µM (inactive) | 5.38 µM (inactive) | 6.47 µM (inactive) | 47.9 µM (inactive) | 18.7 µM (inactive) | 3.45 µM (inactive) | 12.4 µM (inactive) | 12 µM (inactive) | 16.6 µM (inactive) | 
8 | CSc1cc(Cl)c(C)cc1S(=O)(=O)NC(=O)NNc1ccc(C)cc1 | > 100 µM (inactive) |  | > 100 | 93.3 µM (inactive) | > 100 µM (inactive) | > 100 µM (inactive) | > 100 µM (inactive) | 43.5 µM (inactive) |  | > 100 µM (inactive) | > 100 µM (inactive) | 61.9 µM (inactive) |  |  | > 100 µM (inactive) | > 100 µM (inactive) | > 100 µM (inactive) | > 100 µM (inactive) | 48.9 µM (inactive) | 22.2 µM (inactive)
9 | O=C(c1ccsc1)c1nccc2c1cnc1ccccc12 | > 100 µM (inactive) | 45.3 µM (inactive) | > 100 | > 100 µM (inactive) | 34.8 µM (inactive) | 84.9 µM (inactive) | > 100 µM (inactive) | > 100 µM (inactive) | 6.55 µM (inactive) | > 100 µM (inactive) | > 100 µM (inactive) | > 100 µM (inactive) | 65.6 µM (inactive) | 2.47 µM (inactive) | > 100 µM (inactive) | 45.5 µM (inactive) | 61 µM (inactive) | 97.7 µM (inactive) | > 100 µM (inactive) | 
10 | COC(=O)/C=C/c1ccc2nncnc2c1.COC(=O)/C=C\c1ccc2nncnc2c1 | 20 µM (inactive) | 10 µM (inactive) | 29 | 48.6 µM (inactive) | > 100 µM (inactive) |  | 21 µM (inactive) | 34.7 µM (inactive) | 56.1 µM (inactive) | 32.7 µM (inactive) | 57.9 µM (inactive) | 98.4 µM (inactive) | 15.7 µM (inactive) | 96.4 µM (inactive) | 43.8 µM (inactive) | 23.4 µM (inactive) | > 100 µM (inactive) | > 100 µM (inactive) | 28.7 µM (inactive) | 
11 | COc1ccc(Cc2ccccc2C(=O)O)c2ccccc12 | 28.8 µM (inactive) | 25.5 µM (inactive) | 28.2 | 22.2 µM (inactive) | 39.4 µM (inactive) | 44.3 µM (inactive) | 35.6 µM (inactive) | 30.6 µM (inactive) | 32.1 µM (inactive) | 20.7 µM (inactive) | 28.5 µM (inactive) | 44.4 µM (inactive) | 16.3 µM (inactive) | 21 µM (inactive) | 25.1 µM (inactive) | 28.4 µM (inactive) | 32 µM (inactive) | 34.2 µM (inactive) | 37.5 µM (inactive) | 
12 | O=C(/C=C/c1ccc(O)c(-c2cc(C(=O)/C=C/c3ccc(O)cc3)c(O)cc2O)c1)c1ccc(O)cc1O [RHUSCHALCONE VI] | 10.1 µM (inactive) | 23.9 µM (inactive) | > 50 | 20.7 µM (inactive) |  | 17.2 µM (inactive) | 49.1 µM (inactive) | 22.5 µM (inactive) | > 50 µM (inactive) | 16.2 µM (inactive) | 11.7 µM (inactive) | 33.3 µM (inactive) | 9.16 µM (inactive) | 17.3 µM (inactive) | 10.4 µM (inactive) | 37.5 µM (inactive) | 29.7 µM (inactive) | 47.6 µM (inactive) | 40.5 µM (inactive) | 
13 | COc1ccc(-n2sc3ncc(C)cc3c2=O)cc1 | 17.4 µM (inactive) | 26.2 µM (inactive) | 18.4 | 21.8 µM (inactive) | 26.2 µM (inactive) |  | 18.7 µM (inactive) | 15.6 µM (inactive) | 17.6 µM (inactive) | 16.9 µM (inactive) | 18.2 µM (inactive) | 17.5 µM (inactive) | 17.5 µM (inactive) |  | 24.2 µM (inactive) | 50.1 µM (inactive) | 17 µM (inactive) | 17.3 µM (inactive) | 21.7 µM (inactive) | 62.2 µM (inactive)
14 | Cc1cc(=O)oc2cc(OCC(O)COC(C)C)ccc12 (stereo not given) | > 100 µM (inactive) | > 100 µM (inactive) | > 100 |  |  |  | > 100 µM (inactive) | > 100 µM (inactive) | > 100 µM (inactive) | > 100 µM (inactive) | > 100 µM (inactive) | > 100 µM (inactive) | > 100 µM (inactive) | > 100 µM (inactive) | > 100 µM (inactive) | > 100 µM (inactive) | > 100 µM (inactive) | > 100 µM (inactive) | > 100 µM (inactive) | > 100 µM (inactive)
15 | COc1ccc2c(c1)C1=NCCN(CCN(C)C)c3ccc([N+](=O)[O-])c(c31)N2 | 0.348 µM (active) | 0.701 µM (active) | 0.395 | 1.45 µM (inactive) | 2.17 µM (inactive) | 0.757 µM (active) | 0.489 µM (active) | 0.411 µM (active) | 0.735 µM (active) | 0.499 µM (active) | 0.526 µM (active) | 0.156 µM (active) | 0.535 µM (active) | 0.427 µM (active) | 1.28 µM (inactive) | 0.35 µM (active) | 0.196 µM (active) | 0.255 µM (active) | 0.48 µM (active) | 
16 | CC(=O)c1cccc(Nc2nc3ccccc3c3[nH]c4ccccc4c23)c1 | 4.02 µM (inactive) | 9.38 µM (inactive) | 3.94 | 3.75 µM (inactive) |  |  | 8.79 µM (inactive) | 4.65 µM (inactive) | 3.33 µM (inactive) | 2.48 µM (inactive) | 3.86 µM (inactive) | 3.48 µM (inactive) | 1.94 µM (inactive) |  |  | 3.53 µM (inactive) | 3.19 µM (inactive) | 3.01 µM (inactive) | 4.93 µM (inactive) | 
